{"source": "patent US20200323838A1", "about": "“LENALIDOMIDE IMMEDIATE RELEASE FORMULATIONS” (Synbias Pharma AG, priority 2017, published 2020)", "key": {"[1]": {"conditions": "cited from earlier work"}, "[2]": {"conditions": "high solubility, low permeability; cited from earlier work"}, "[3]": {"assay": "Dissolution of hard gelatin capsules (Xtend Sotax dissolutor, HPLC detection)", "assay_type": "physicochemical", "source_text": "(§1) Micronized lenalidomide form A (d(0.5)=10 μm) was mixed with microcrystalline cellulose in a ratio 1:10, filled manually in Size 2 HGC and analyzed for dissolution. Dissolution experiments were run in Xtend Sotax dissolutor, in phosphate buffer pH 6.5 and 0.01 HCl pH 1.8. Sampling time intervals were 10, 15, 20, min. In house developed isocratic HPLC analytical method was used for detection of lenalidomide in dissolution media.\nas §1, with “Non-micronized” for “Micronized”, “(d(0.5)=30” for “(d(0.5)=10”\n20 mg of non-micronized lenalidomide form A were mixed with 20 mg microcrystalline cellulose, 60 mg lactose monohydrate and, filled manually in size 2 HGC and analyzed for dissolution as in Example 1.\nFormulation prepared according to Example 6 was used for comparative dissolution with Revlimid HGCs in 50 mM phosphate buffer pH 6.8. The results in Table 8 show there was no difference between dissolution profile of Revlimid and tested HGC. […]"}, "[4]": {"conditions": "0.1 HCl buffer (highest solubility); cited from earlier work"}, "[5]": {"conditions": "HCl buffer pH 1.8, containing 1% sodium lauryl sulfate; cited from earlier work"}}, "note": "Like-named read-outs stand apart in the source and are kept apart here.", "data": [{"smiles": "Nc1cccc2c1CN(C1CCC(=O)NC1=O)C2=O", "note": "(stereo not drawn) [Lenalidomide, 3-(4-amino-1,3-dihydro-1-oxo-2H-isoindol-2-yl)-2,6-piperidine dione]", "values": [{"measurement": "time to reach maximum serum concentration (Tmax)", "setting": "[1]; healthy volunteers, oral", "result": "46.2 to 60", "unit": "min"}, {"measurement": "time to reach maximum serum concentration (Tmax)", "setting": "[1]; patients with acute myeloid leukemia, oral administration, 25 mg", "result": 71.4, "unit": "min"}, {"measurement": "BCS class", "setting": "[2]", "result": "class III"}, {"measurement": "lenalidomide API dissolved in 10 min", "setting": "[3]", "result": "≥ 80", "unit": "%"}, {"measurement": "solubility", "setting": "[4]", "result": 18.0, "unit": "mg/mL"}]}, {"smiles": "Nc1cccc2c1CN(C1CCC(=O)NC1=O)C2=O", "note": "(stereo not drawn) [Polymorph B]", "values": [{"measurement": "solubility", "setting": "[5]", "result": 5.8, "unit": "mg/mL"}]}]}
